These compounds were tested against human M4 receptor (Homo sapiens (Human), UniProt P08173) (assay: Radioligand (tritiated N-methylscopolamine) binding assay, M4). Details: Ki against the M4 receptor; membranes from CHO cells expressing human M4; tritiated N-methylscopolamine 1.5 nM; read-out: Ki.
Summary of the method: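 Inhibition of radioligand binding gave Ki. The assay used recombinant CHO membranes, 1.5 nM tracer, a 90 min/37 °C incubation and pH 7.4 buffer.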

Chain of human M4 receptor (P08173 whole entry): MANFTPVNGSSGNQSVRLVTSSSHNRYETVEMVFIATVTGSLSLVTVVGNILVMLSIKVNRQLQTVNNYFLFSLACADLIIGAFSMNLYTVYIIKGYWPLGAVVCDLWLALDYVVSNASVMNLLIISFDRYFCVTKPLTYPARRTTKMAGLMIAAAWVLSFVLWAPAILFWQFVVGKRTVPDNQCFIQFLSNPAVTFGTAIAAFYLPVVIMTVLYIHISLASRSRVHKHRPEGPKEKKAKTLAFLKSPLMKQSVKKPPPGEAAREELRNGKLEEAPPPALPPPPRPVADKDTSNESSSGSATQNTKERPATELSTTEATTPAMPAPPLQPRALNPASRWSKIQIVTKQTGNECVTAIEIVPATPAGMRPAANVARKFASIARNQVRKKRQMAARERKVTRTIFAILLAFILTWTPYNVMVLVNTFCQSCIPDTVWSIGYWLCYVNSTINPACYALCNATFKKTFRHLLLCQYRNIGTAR

Ki	Structure (SMILES)
100 to 1000 nM	CCC(C)NC(=O)c1cnc(N2C[C@@H](C)N(C(=O)NCCC3CCN(Cc4ccccc4)CC3)[C@@H](C)C2)nc1 (some centres unmarked) [27-8]
10 to 100 nM	C[C@@H]1CN(c2ncc(C#N)cn2)C[C@H](C)N1C(=O)NCCC1CCN(C2Cc3ccccc3C2)CC1 [21-4, (2R,6S)-4-(5-cyanopyrimidin-2-yl)-N-{2-[l-(2,3-dihydro-1H-inden-2-yl)piperidin-4-yl]ethyl}-2,6-dimethylpiperazine-1-carboxamide]
100 to 1000 nM	O=C(NCCC1CCN(Cc2ccccc2)CC1)c1ccc(-c2cccs2)cc1 [9-55, N-[2-(1-benzylpiperidin-4-yl)ethyl]-4-(thiophen-2-yl)benzamide]
10 to 100 nM	Cc1c(C(=O)NCCC2CCN(Cc3ccccc3)CC2)cnc2cc(-c3cccc(F)c3F)nn12 [18-7]
10 to 100 nM	O=C(NCCC1CCN(Cc2ccccc2)CC1)N1CCC(c2csc3ccccc23)CC1 [8-10, 4-(1-benzothiophen-3-yl)-N-[2-(1-benzylpiperidin-4-yl)ethyl]piperidine-1-carboxamide]
10 to 100 nM	C[C@@H]1CN(c2ccc(OC(F)(F)F)c(C#N)c2)CCN1C(=O)NCCN1CCN(Cc2ccccc2)CC1 [7-3, (2R)-N-[2-(4-benzylpiperazin-1-yl)ethyl]-4-[3-cyano-4-(trifluoromethoxy)phenyl]-2-methylpiperazine-1-carboxamide]
10 to 100 nM	O=C(NCCC1CCN(Cc2ccccc2O)CC1)c1ccc(OCc2ccccc2)cc1 [11-3, 4-(benzyloxy)-N-(2-{1-[(2-hydroxyphenyl)methyl]piperidin-4-yl}ethyl)benzamide]
100 to 1000 nM	C[C@@H]1CN(c2ncc(Cl)c(Cl)n2)CCN1C(=O)NCCC1CCN(Cc2ccccc2)CC1 [5-3, (2R)-N-[2-(1-benzylpiperidin-4-yl)ethyl]-4-(4,5-dichloropyrimidin-2-yl)-2-methylpiperazine-1-carboxamide]
10 to 100 nM	O=C(NCCC1CCN(Cc2ccccc2)CC1)c1ccc(-c2ccc(C(F)(F)F)cc2)cc1 [9-16, N-[2-(1-benzylpiperidin-4-yl)ethyl]-4-[4-(trifluoromethyl)phenyl]benzamide]
10 to 100 nM	COC(=O)c1ccc(-c2ccc(C(=O)NCCC3CCN(Cc4ccccc4)CC3)cc2)cc1 [9-14, methyl 4-(4-{[2-(1-benzylpiperidin-4-yl)ethyl]carbamoyl}phenyl)benzoate]
10 to 100 nM	C[C@@H]1CN(c2cnc(C(F)(F)F)nc2)C[C@H](C)N1C(=O)NCCC1CCN(Cc2ccc(F)cc2)CC1 [6-55, (2R,6S)-N-(2-{1-[(4-fluorophenyl)methyl]piperidin-4-yl}ethyl)-2,6-dimethyl-4-[2-(trifluoromethyl)pyrimidin-5-yl]piperazine-1-carboxamide]
100 to 1000 nM	CCNC(=O)c1cnc(N2CCN(C(=O)NCCC3CCN(Cc4ccccc4)CC3)[C@H](C)C2)nc1 [27-16]
100 to 1000 nM	C[C@@H]1CN(c2ncc(C(F)(F)F)cn2)CCN1C(=O)NCCC1CCN(Cc2cncnc2)CC1 [6-39, (2R)-2-methyl-N-{2-[1-(pyrimidin-5-ylmethyl)piperidin-4-yl]ethyl}-4-[5-(trifluoromethyl)pyrimidin-2-yl]piperazine-1-carboxamide]
100 to 1000 nM	N#Cc1ccc(N2CCC(C(=O)NCCC3CCN(Cc4ccccc4O)CC3)CC2)nc1 [11-25, 1-(5-cyanopyridin-2-yl)-N-(2-{1-[(2-hydroxyphenyl)methyl]piperidin-4-yl}ethyl)piperidine-4-carboxamide]
10 to 100 nM	O=C(NCCC1CCN(Cc2ccccc2)CC1)N1CCC(c2nc3ccccc3s2)CC1 [8-14, 4-(1,3-benzothiazol-2-yl)-N-[2-(1-benzylpiperidin-4-yl)ethyl]piperidine-1-carboxamide]
100 to 1000 nM	C[C@@H]1CN(c2ncc(C#N)cn2)C[C@H](C)N1C(=O)NCCC1CCN(CC2CCCCO2)CC1 (some centres unmarked) [21-9]
100 to 1000 nM	Cc1cc(CN2CCC(CCNC(=O)N3[C@H](C)CN(c4cnc(C(F)(F)F)nc4)C[C@@H]3C)CC2)ccc1O [6-49, (2R,6S)-N-(2-{1-[(4-hydroxy-3-methylphenyl)methyl]piperidin-4-yl}ethyl)-2,6-dimethyl-4-[2-(trifluoromethyl)pyrimidin-5-yl]piperazine-1-carboxamide]
100 to 1000 nM	CC(C)CN1CCC(CCNC(=O)N2[C@H](C)CN(c3ncc(C#N)cn3)C[C@@H]2C)CC1 [21-6]

Ki	Structure (SMILES)
10 to 100 nM	C[C@@H]1CN(c2cnc(C(F)(F)F)nc2)C[C@H](C)N1C(=O)NCCC1CCN(Cc2ccc(N(C)C)cc2)CC1 [6-53, (2R,6S)-N-[2-(1-{[4-(dimethylamino)phenyl]methyl}piperidin-4-yl)ethyl]-2,6-dimethyl-4-[2-(trifluoromethyl)pyrimidin-5-yl]piperazine-1-carboxamide]
10 to 100 nM	O=C(NCCC1CCN(Cc2ccccc2)CC1)N1CCC(c2cccc(C(F)(F)F)c2)CC1 [8-3, N-[2-(1-benzylpiperidin-4-yl)ethyl]-4-[3-(trifluoromethyl)phenyl]piperidine-1-carboxamide]
100 to 1000 nM	Cc1c(C(=O)NCCC2CCN(Cc3ccncc3)CC2)cnc2cc(-c3cccc(C(F)(F)F)c3)nn12 [19-5]
100 to 1000 nM	O=C(NCCC1CCN(Cc2ccccc2)CC1)C1CCN(c2ccc(Cl)nc2)CC1 [10-27, N-[2-(1-benzylpiperidin-4-yl)ethyl]-1-(6-chloropyridin-3-yl)piperidine-4-carboxamide]
10 to 100 nM	COc1cccc(CN2CCC(CCNC(=O)N3[C@H](C)CN(c4ncc(C#N)cn4)C[C@@H]3C)CC2)c1 [6-59, (2R,6S)-4-(5-cyanopyrimidin-2-yl)-N-(2-{1-[(3-methoxyphenyl)-methyl]piperidin-4-yl}ethyl)-2,6-dimethylpiperazine-1-carboxamide]
100 to 1000 nM	COc1ccc(N2CCC(C(=O)NCCC3CCN(Cc4ccccc4)CC3)CC2)cc1 [10-60, N-[2-(1-benzylpiperidin-4-yl)ethyl]-1-(4-methoxyphenyl)piperidine-4-carboxamide]
10 to 100 nM	O=C(C1CCN(c2ncc(C(F)(F)F)cc2Cl)CC1)N1CCN(C2CCN(Cc3ccccc3)CC2)CC1 [9-21, 1-(1-benzylpiperidin-4-yl)-4-{1-[3-chloro-5-(trifluoromethyl)pyridin-2-yl]piperidine-4-carbonyl}piperazine]
100 to 1000 nM	C[C@@H]1CN(c2cc(F)c(F)c(F)c2)CCN1C(=O)NCC[C@H]1CCN(Cc2ccccc2)C1 [7-5, (2R)-N-{2-[(3S)-1-benzylpyrrolidin-3-yl]ethyl}-2-methyl-4-(3,4,5-trifluorophenyl)piperazine-1-carboxamide]
100 to 1000 nM	C[C@@H]1CN(c2ncc(C#N)cn2)C[C@H](C)N1C(=O)NCCC1CCN(CC2CCCS(=O)(=O)C2)CC1 (stereo partly drawn) [21-11, (2R,6S)-4-(5-cyanopyrimidin-2-yl)-N-(2-{1-[(1,1-dioxo-1-thian-3-yl)methyl]piperidin-4-yl}ethyl)-2,6-dimethylpiperazine-1-carboxamide]
100 to 1000 nM	O=C(NCCC1CCN(Cc2ccccc2)CC1)c1ccc(SC(F)(F)F)cc1 [9-56, N-[2-(1-benzylpiperidin-4-yl)ethyl]-4-[(trifluoromethyl)sulfanyl]benzamide]
100 to 1000 nM	C[C@@H]1CN(c2ncc(C#N)cn2)C[C@H](C)N1C(=O)NCCC1CCN(CCc2ccccc2)CC1 [6-44, (2R,6S)-4-(5-cyanopyrimidin-2-yl)-2,6-dimethyl-N-{2-[1-(2-phenylethyl)piperidin-4-yl]ethyl}piperazine-1-carboxamide]
100 to 1000 nM	N#Cc1ccc(N2CCC(C(=O)NCCC3CCN(Cc4ccccc4O)CC3)CC2)nc1 [11-26, 1-(5-cyanopyridin-2-yl)-N-(2-{1-[(2-hydroxyphenyl)methyl]piperidin-4-yl}ethyl)piperidine-4-carboxamide]
100 to 1000 nM	Cc1cc(N2CCN(C(=O)NCCC3CCN(Cc4ccccc4)CC3)[C@H](C)C2)ccc1C#N [4-4, (2R)-N-[2-(1-benzylpiperidin-4-yl)ethyl]-4-(4-cyano-3-methylphenyl)-2-methylpiperazine-1-carboxamide]
100 to 1000 nM	C[C@@H]1CN(c2ncc(F)c(Cl)n2)CCN1C(=O)NCCC1CCN(Cc2ccccc2)CC1 [5-9, (2R)-N-[2-(1-benzylpiperidin-4-yl)ethyl]-4-(4-chloro-5-fluoropyrimidin-2-yl)-2-methylpiperazine-1-carboxamide]
10 to 100 nM	O=C(NCCC1CCN(Cc2ccccc2)CC1O)C1CCN(c2ccc(OC(F)(F)F)cc2)CC1 (centres unmarked) [9-27, N-[2-(1-benzyl-3-hydroxypiperidin-4-yl)ethyl]-1-[4-(trifluoromethoxy)phenyl]piperidine-4-carboxamide]
10 to 100 nM	C[C@@H]1CN(c2cnc(C(F)(F)F)nc2)C[C@H](C)N1C(=O)NCCC1CCN(CCc2ccccc2)CC1 [6-56, (2R,6S)-2,6-dimethyl-N-{2-[1-(2-phenylethyl)piperidin-4-yl]ethyl}-4-[2-(trifluoromethyl)pyrimidin-5-yl]piperazine-1-carboxamide]
10 to 100 nM	N#Cc1cccc(N2CCC(C(=O)NCCC3CCN(Cc4ccccc4)CC3)CC2)c1 [10-77, N-[2-(1-benzylpiperidin-4-yl)ethyl]-1-(3-cyanophenyl)piperidine-4-carboxamide]
10 to 100 nM	CN(CCNC(=O)C1CCN(c2ccc(OC(F)(F)F)cc2)CC1)[C@@H]1CCN(Cc2ccccc2)C1 [9-26, N-(2-{[(3R)-1-benzylpyrrolidin-3-yl](methyl)amino}ethyl)-1-[4-(trifluoromethoxy)phenyl]piperidine-4-carboxamide]

Structure (SMILES)	Ki
COc1cccc(CN2CCC(CCNC(=O)C3CCN(c4ccc(OC(F)(F)F)cc4)CC3)CC2)n1 [11-30, N-(2-{l-[(6-methoxypyridin-2-yl)methyl]piperidin-4-yl}ethyl)-1-[4-(trifluoromethoxy)phenyl]piperidine-4-carboxamide]	100 to 1000 nM
CC(=O)O[C@H](CNC(=O)N1CCN(c2ccc(F)c(C#N)c2)C[C@H]1C)C1CCN(Cc2ccccc2)CC1 [3-2, (1S)-1-(1-benzylpiperidin-4-yl)-2-{[(2R)-4-(3-cyano-4-fluorophenyl)-2-methylpiperazine-1-carbonyl]amino}ethyl acetate]	10 to 100 nM
